In PMC12121777 (PLOS One, 2025):
In brackets after ≈: the same amount, converted by molar mass. Read-outs that look alike come from different tables or passages of the source.

How the values were obtained:
Bacillus subtilis = test system: Bacillus subtilis; design: method as in PMID 30988267; conditions: cited from earlier work
Mtb 331/88 (i.e., H37Rv) = assay: MIC, micro method in Šula's semisynthetic medium, drug-susceptible Mtb; type: cell-based, Mycobacterium tuberculosis; conditions: Mycobacterium tuberculosis, H37RV
[1] = test system: Mycobacterium avium 330/88; assay: MIC, micro method in Šula's semisynthetic medium, M. avium; type: cell-based; conditions: read-out: MIC M. avium 330/88
[2] = test system: Mycobacterium kansasii 6509/96; assay: MIC, micro method in Šula's semisynthetic medium, M. kansasii clinical isolate; type: cell-based; conditions: read-out: MIC M. kansasii 6509/96
HepG2 cells = assay: Cytotoxicity on HepG2 cell line (CellTiter 96); type: cell-based, human; conditions: read-out: IC50 HepG2

Cc1ccc(-c2nnc(NC(=O)c3ccc([N+](=O)[O-])cc3)o2)cc1 [IX]
MIC (Bacillus subtilis): 780 µg/mL (≈ 2410 µM)

CCCCCCCCCCNC(=O)NNC(=O)c1cc([N+](=O)[O-])cc([N+](=O)[O-])c1 [Compound 4j, N-Decyl-2-(3,5-dinitrobenzoyl)hydrazine-1-carboxamide]
MIC (Mtb 331/88 (i.e., H37Rv); 336 h, 14 days): 1 µM (≈ 0.409 µg/mL)
MIC (Mtb 331/88 (i.e., H37Rv); 504 h, 21 days): 1 µM (≈ 0.409 µg/mL)
MIC ([1]; 330/88, 336 h): > 500 µM
MIC ([1]; 330/88, 504 h): > 500 µM
MIC ([2]; 6509/96, 168 h): 1 µM (≈ 0.409 µg/mL)
MIC ([2]; 6509/96, 336 h): 2 µM (≈ 0.819 µg/mL)
MIC ([2]; 6509/96, 504 h): 4 µM (≈ 1.64 µg/mL)
IC50 (HepG2 cells; Homo sapiens, HepG2, 24 h): 141 µM

CCCCCCCCCCCCNc1nnc(-c2cc([N+](=O)[O-])cc([N+](=O)[O-])c2)o1 [Compound 5l, 5-(3,5-Dinitrophenyl)-N-dodecyl-1,3,4-oxadiazol-2-amine]
MIC (Mtb 331/88 (i.e., H37Rv); 336 h, 14 days): 1 µM (≈ 0.419 µg/mL)
MIC (Mtb 331/88 (i.e., H37Rv); 504 h, 21 days): 1 µM (≈ 0.419 µg/mL)
MIC ([1]; 330/88, 336 h): 4 µM (≈ 1.68 µg/mL)
MIC ([1]; 330/88, 504 h): 8 µM (≈ 3.36 µg/mL)
MIC ([2]; 6509/96, 168 h): 1 µM (≈ 0.419 µg/mL)
MIC ([2]; 6509/96, 336 h): 1 µM (≈ 0.419 µg/mL)
MIC ([2]; 6509/96, 504 h): 1 µM (≈ 0.419 µg/mL)
IC50 (HepG2 cells; Homo sapiens, HepG2, 24 h): > 50 µM

CCCCCCCCCCCNc1nnc(-c2cc([N+](=O)[O-])cc([N+](=O)[O-])c2)o1 [Compound 5k, 5-(3,5-Dinitrophenyl)-N-undecyl-1,3,4-oxadiazol-2-amine]
MIC (Mtb 331/88 (i.e., H37Rv); 336 h, 14 days): 0.5 µM (≈ 0.203 µg/mL)
MIC (Mtb 331/88 (i.e., H37Rv); 504 h, 21 days): 1 µM (≈ 0.405 µg/mL)
MIC ([1]; 330/88, 336 h): 4 µM (≈ 1.62 µg/mL)
MIC ([1]; 330/88, 504 h): 4 µM (≈ 1.62 µg/mL)
MIC ([2]; 6509/96, 168 h): 1 µM (≈ 0.405 µg/mL)
MIC ([2]; 6509/96, 336 h): 1 µM (≈ 0.405 µg/mL)
MIC ([2]; 6509/96, 504 h): 1 µM (≈ 0.405 µg/mL)
IC50 (HepG2 cells; Homo sapiens, HepG2, 24 h): > 50 µM

NNC(=O)c1ccncc1 [INH, isoniazid, reference compound]
MIC (Mtb 331/88 (i.e., H37Rv); 336 h, 14 days): 0.5 µM (≈ 0.0686 µg/mL)
MIC (Mtb 331/88 (i.e., H37Rv); 504 h, 21 days): 0.5 µM (≈ 0.0686 µg/mL)
MIC ([1]; 330/88, 336 h, 14 days, * = growth still observed at this concentration, turbidity or precipitate above): > 250 µM
MIC ([1]; 330/88, 504 h, 21 days, * = growth still observed at this concentration, turbidity or precipitate above): > 250 µM
MIC ([2]; 6509/96, 168 h, 7 days): 4 µM (≈ 0.549 µg/mL)
MIC ([2]; 6509/96, 336 h, 14 days): 8 µM (≈ 1.1 µg/mL)
MIC ([2]; 6509/96, 504 h, 21 days): 8 µM (≈ 1.1 µg/mL)
IC50 (HepG2 cells; Homo sapiens, HepG2, 24 h incubation): > 1000 µM

CCCCCCCCCCCCNC(=O)NNC(=O)c1cc([N+](=O)[O-])cc([N+](=O)[O-])c1 [Compound 4l, 2-(3,5-Dinitrobenzoyl)-N-dodecylhydrazine-1-carboxamide]
MIC (Mtb 331/88 (i.e., H37Rv); 336 h, 14 days): 2 µM (≈ 0.875 µg/mL)
MIC (Mtb 331/88 (i.e., H37Rv); 504 h, 21 days): 2 µM (≈ 0.875 µg/mL)
MIC ([1]; 330/88, 336 h): > 250 µM
MIC ([1]; 330/88, 504 h): > 250 µM
MIC ([2]; 6509/96, 168 h): 2 µM (≈ 0.875 µg/mL)
MIC ([2]; 6509/96, 336 h): 2 µM (≈ 0.875 µg/mL)
MIC ([2]; 6509/96, 504 h): 4 µM (≈ 1.75 µg/mL)
IC50 (HepG2 cells; Homo sapiens, HepG2, 24 h): 166 µM

O=C(Nc1nnc(COc2ccccc2)o1)c1ccc([N+](=O)[O-])cc1 [X]
MIC (Bacillus subtilis): 780 µg/mL (≈ 2290 µM)

CCCCCNC(=O)NNC(=O)c1cc([N+](=O)[O-])cc([N+](=O)[O-])c1 [Compound 4e, 2-(3,5-Dinitrobenzoyl)-N-pentylhydrazine-1-carboxamide]
MIC (Mtb 331/88 (i.e., H37Rv); 336 h, 14 days): 1 µM (≈ 0.339 µg/mL)
MIC (Mtb 331/88 (i.e., H37Rv); 504 h, 21 days): 1 µM (≈ 0.339 µg/mL)
MIC ([1]; 330/88, 336 h): 1000 µM (≈ 339 µg/mL)
MIC ([1]; 330/88, 504 h): 1000 µM (≈ 339 µg/mL)
MIC ([2]; 6509/96, 168 h): 1 µM (≈ 0.339 µg/mL)
MIC ([2]; 6509/96, 336 h): 1 µM (≈ 0.339 µg/mL)
MIC ([2]; 6509/96, 504 h): 2 µM (≈ 0.679 µg/mL)
IC50 (HepG2 cells; Homo sapiens, HepG2, 24 h): 134 µM

CCCCCCCCCCCCCCCNC(=O)NNC(=O)c1cc([N+](=O)[O-])cc([N+](=O)[O-])c1 [Compound 4o, 2-(3,5-Dinitrobenzoyl)-N-pentadecylhydrazine-1-carboxamide]
MIC (Mtb 331/88 (i.e., H37Rv); 336 h, 14 days): 8 µM (≈ 3.84 µg/mL)
MIC (Mtb 331/88 (i.e., H37Rv); 504 h, 21 days): 16 µM (≈ 7.67 µg/mL)
MIC ([1]; 330/88, 336 h): > 500 µM
MIC ([1]; 330/88, 504 h): > 500 µM
MIC ([2]; 6509/96, 168 h): 8 µM (≈ 3.84 µg/mL)
MIC ([2]; 6509/96, 336 h): 8 µM (≈ 3.84 µg/mL)
MIC ([2]; 6509/96, 504 h): 16 µM (≈ 7.67 µg/mL)
IC50 (HepG2 cells; Homo sapiens, HepG2, 24 h): < 100 µM
IC50 (HepG2 cells): 82.5 µM
